# Measurements from publication PMC7790557, “Pleiotropic Properties of Amphiphilic Dihydropyridines, Dihydropyridones, and Aminovinylcarbonyl Compounds” (Oxidative Medicine and Cellular Longevity, 2020).
# Legend:
# [1] = tested on: MH-22A (mouse hepatoma); assay: Cytotoxicity, crystal violet (CV) assay, MH-22A; assay type: cell-based; details: Mus musculus; Table 1; 72 h exposure; read-out: MH-22A IC50 (CV)
# Description: After incubation, the staining solution was removed. The cells were washed 4 times with water.
# [2] = tested on: HT-1080 (human lung fibrosarcoma); assay: Cytotoxicity, MTT assay, HT-1080; assay type: cell-based; details: Homo sapiens, HT-1080; Table 1; 72 h exposure; read-out: HT-1080 IC50 (MTT)
# From the text: (§1) Reduction takes place only when mitochondrial reductase enzymes are active, and therefore, conversion is directly related to the number of viable cells which can be quantified by the absorbance of the solution (between λ = 500 and 600 nm) using a spectrophotometer.
# [3] = Electrochemical oxidation potentials, cyclic voltammetry; assay type: physicochemical; details: glassy carbon electrode, dry acetonitrile
# Description: A stationary glassy carbon disk electrode (d = 0.5 mm) served as the working electrode, while the counterelectrode was a Pt wire. The oxidation potentials were measured relative to a Ag/Ag^+ reference electrode. Acetonitrile was dried over P2O5 and distilled; the distillate was stored over CaH2 and redistilled just before use. Recrystallized tetrabutylammonium tetrafluoroborate (TBABF4) was used as a supporting electrolyte at 0.1 M concentration.
# The electrochemical oxidation of the selected compounds studied in this work was performed by cyclic voltammetry on a stationary glassy carbon electrode in dry acetonitrile; the data is presented in Table 4. The perchlorates of the tested amphiphiles were obtained from the corresponding bromides by treating their abs. MeOH solutions with excess of conc. HClO4 according to the procedure elaborated by Turovska et al..
# [4] = tested on: NIH3T3; assay: in vitro; details: mouse
# [5] = tested on: HT-1080 (human lung fibrosarcoma); assay: Cytotoxicity, crystal violet (CV) assay, HT-1080; details: Homo sapiens, HT-1080, 72 h, read-out: HT-1080 IC50 (CV)
# [6] = tested on: NIH3T3 (mouse embryonic fibroblast); assay: Basal cytotoxicity test, Neutral Red Uptake (NRU) assay; details: Mus musculus, NIH3T3, 24 h, read-out: NIH3T3 IC50 (NR)
# [7] = tested on: MH-22A (mouse hepatoma); assay: Cytotoxicity, MTT assay, MH-22A; assay type: cell-based; details: Mus musculus; Table 1; 72 h exposure; read-out: MH-22A IC50 (MTT)
# From the text: as §1
# [8] = previous results; cited from earlier work
smiles,measurement,setting,value
"CCOC(=O)C1=C(C[n+]2ccccc2)NC(C[n+]2ccccc2)=C(C(=O)OCC)C1c1ccccc1.[Br-].[Br-] [compound 1, 1,1'-((3,5-Bis(ethoxycarbonyl)-4-phenyl-1,4-dihydropyridine-2,6-diyl)bis(methylene))-bis(pyridin-1-ium) dibromide]",IC50,[1],> 100 µg/mL
same,IC50,[2],> 100 µg/mL
same,Oxidation potential E^ox,"[3]; Table 4, vs Ag/Ag+, 0.1 M TBABF4, tested as perchlorates",1.57 V
same,electrooxidation potential,[3]; cyclic voltammetry,1.57–1.58 V
same,"LD50 (calculated, NIH3T3)",[4],> 2000 mg/kg
same,IC50,[5],> 100 µg/mL
same,IC50,[6],> 1000 µg/mL
same,IC50,[7],> 100 µg/mL
same,electrochemical oxidation potential,[8],1.7 V
